Experimental data: patent publication US20250289810A1, “Compounds As NLRP3 Inflammasome Inhibitors And Their Use As Medicaments” (MAM-AGE S.R.L., priority 2022, published 2025)

Target: T1, NLRP3 inflammasome (Mus musculus, UniProt Q8R4B8)
T1 construct: bone marrow-derived macrophages (BMDMs) from wild type (WT) mice first primed with 1 μg/ml lipopolysaccharide (LPS); endogenous in cells; host or cells: primary BMDMs from wild type mice
Experiment: Inhibition of NLRP3-mediated IL-1β release in BMDMs (LPS + Bz-ATP), ELISA
Type: cell-based
Settings: BMDM; BMDMs from WT mice, LPS + BzATP, compound at 1 μM; read-out: Inhibitory rate of IL-1β release

T1 sequence (Q8R4B8 whole entry): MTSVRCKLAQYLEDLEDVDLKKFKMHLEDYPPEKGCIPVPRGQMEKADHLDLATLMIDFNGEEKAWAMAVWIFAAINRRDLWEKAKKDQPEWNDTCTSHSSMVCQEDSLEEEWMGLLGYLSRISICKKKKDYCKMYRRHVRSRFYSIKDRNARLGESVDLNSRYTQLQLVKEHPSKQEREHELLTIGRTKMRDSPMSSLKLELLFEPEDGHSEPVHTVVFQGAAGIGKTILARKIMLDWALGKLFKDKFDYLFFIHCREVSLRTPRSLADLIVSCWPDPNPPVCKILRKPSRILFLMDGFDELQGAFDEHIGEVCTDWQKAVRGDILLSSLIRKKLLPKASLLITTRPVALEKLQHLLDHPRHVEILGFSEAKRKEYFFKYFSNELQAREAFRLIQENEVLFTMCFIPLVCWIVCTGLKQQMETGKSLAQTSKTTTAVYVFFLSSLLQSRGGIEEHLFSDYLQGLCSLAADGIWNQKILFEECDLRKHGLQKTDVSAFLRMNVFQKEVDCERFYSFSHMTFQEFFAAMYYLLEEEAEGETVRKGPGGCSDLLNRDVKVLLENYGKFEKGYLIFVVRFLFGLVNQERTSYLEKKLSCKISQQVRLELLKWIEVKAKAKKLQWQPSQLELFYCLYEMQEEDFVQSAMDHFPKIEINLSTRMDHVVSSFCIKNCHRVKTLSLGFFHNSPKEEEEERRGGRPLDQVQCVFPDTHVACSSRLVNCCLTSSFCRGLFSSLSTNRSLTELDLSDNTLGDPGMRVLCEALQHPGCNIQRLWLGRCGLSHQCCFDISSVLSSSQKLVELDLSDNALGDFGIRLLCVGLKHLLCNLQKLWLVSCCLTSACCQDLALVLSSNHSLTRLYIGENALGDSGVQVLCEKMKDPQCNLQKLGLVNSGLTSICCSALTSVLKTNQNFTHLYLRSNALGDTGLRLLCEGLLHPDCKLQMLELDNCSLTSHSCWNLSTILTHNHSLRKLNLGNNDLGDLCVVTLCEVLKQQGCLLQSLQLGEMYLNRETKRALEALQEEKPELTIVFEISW

| Structure (SMILES) | inhibition at 1 µM |
| --- | --- |
| Nc1ccc(S(=O)(=O)N2CCCCC2C(=O)Nc2c3c(cc4c2CCC4)CCC3)cc1 (centres unmarked) [Compound 4b of Formula (IV), 1-((4-aminophenyl)sulfonyl)-N-(1,2,3,5,6,7-hexahydro-s-indacen-4-yl)piperidine-2-carboxamide] | 25.4% |
| CC(C)C[C@H](NS(=O)(=O)c1ccc(N)cc1)C(=O)Nc1c2c(cc3c1CCC3)CCC2 [Compound 7e of Formula (III), (S)-2-((4-aminophenyl)sulfonamido)-N-(1,2,3,5,6,7-hexahydro-s-indacen-4-yl)-4-methylpentanamide] | 31.5% |
| O=C(Nc1c2c(cc3c1CCC3)CCC2)[C@@H](NS(=O)(=O)c1ccc([N+](=O)[O-])cc1)c1ccccc1 [Compound 6f of Formula (III), (S)—N-(1,2,3,5,6,7-hexahydro-s-indacen-4-yl)-2-((4-nitrophenyl)sulfonamido)-2-phenylacetamide] | 44.8% |
| CC(C)[C@H](NS(=O)(=O)c1ccc(N)cc1)C(=O)Nc1c2c(cc3c1CCC3)CCC2 [Compound 7c of Formula (III), (S)-2-((4-aminophenyl)sulfonamido)-N-(1,2,3,5,6,7-hexahydro-s-indacen-4-yl)-3-methylbutanamide] | 50.2% |
| O=C(Nc1c2c(cc3c1CCC3)CCC2)[C@@H](Cc1ccccc1)NS(=O)(=O)c1ccc([N+](=O)[O-])cc1 [Compound 6h of Formula (III), (R)—N-(1,2,3,5,6,7-hexahydro-s-indacen-4-yl)-2-((4-nitrophenyl)sulfonamido)-3-phenylpropanamide] | 49.5% |
| CC(C)C[C@H](NS(=O)(=O)c1ccc([N+](=O)[O-])cc1)C(=O)Nc1c2c(cc3c1CCC3)CCC2 [Compound 6e of Formula (III), (S)—N-(1,2,3,5,6,7-hexahydro-s-indacen-4-yl)-4-methyl-2-((4-nitrophenyl)sulfonamido)pentanamide] | 53.9% |
| Nc1ccc(S(=O)(=O)NCCC(=O)Nc2c3c(cc4c2CCC4)CCC3)cc1 [Compound 7k of Formula (III), 3-((4-aminophenyl)sulfonamido)-N-(1,2,3,5,6,7-hexahydro-s-indacen-4-yl)propanamide] | 22.3% |
| NCCCC[C@H](NS(=O)(=O)c1ccc(N)cc1)C(=O)Nc1c2c(cc3c1CCC3)CCC2 [Compound 11 of Formula (III), (S)-6-amino-2-((4-aminophenyl)sulfonamido)-N-(1,2,3,5,6,7-hexahydro-s-indacen-4-yl)hexanamide] | 28.4% |
| Nc1ccc(S(=O)(=O)N2CCCC2C(=O)Nc2c3c(cc4c2CCC4)CCC3)cc1 (centres unmarked) [Compound 4a of Formula (IV), 1-((4-aminophenyl)sulfonyl)-N-(1,2,3,5,6,7-hexahydro-s-indacen-4-yl)pyrrolidine-2-carboxamide] | 41.6% |
| CC(C)[C@@H](NS(=O)(=O)c1ccc(N)cc1)C(=O)Nc1c2c(cc3c1CCC3)CCC2 [Compound 7d of Formula (III), (R)-2-((4-aminophenyl)sulfonamido)-N-(1,2,3,5,6,7-hexahydro-s-indacen-4-yl)-3-methylbutanamide] | 8.4% |
| O=C(Nc1c2c(cc3c1CCC3)CCC2)[C@H](Cc1ccccc1)NS(=O)(=O)c1ccc([N+](=O)[O-])cc1 [Compound 6g of Formula (III), (S)—N-(1,2,3,5,6,7-hexahydro-s-indacen-4-yl)-2-((4-nitrophenyl)sulfonamido)-3-phenylpropanamide] | 19.8% |
| Nc1ccc(S(=O)(=O)N[C@H](C(=O)Nc2c3c(cc4c2CCC4)CCC3)c2ccccc2)cc1 [Compound 7f of Formula (III), (S)-2-((4-aminophenyl)sulfonamido)-N-(1,2,3,5,6,7-hexahydro-s-indacen-4-yl)-2-phenylacetamide] | 16.1% |
| O=C(Nc1c2c(cc3c1CCC3)CCC2)[C@H](Cc1ccc(O)cc1)NS(=O)(=O)c1ccc([N+](=O)[O-])cc1 [Compound 8 of Formula (III), (S)—N-(1,2,3,5,6,7-hexahydro-s-indacen-4-yl)-3-(4-hydroxyphenyl)-2-((4-nitrophenyl)sulfonamido)propanamide] | 34.7% |
| Nc1ccc(S(=O)(=O)N[C@@H](Cc2ccccc2)C(=O)Nc2c3c(cc4c2CCC4)CCC3)cc1 [Compound 7g of Formula (III), (S)-2-((4-aminophenyl)sulfonamido)-N-(1,2,3,5,6,7-hexahydro-s-indacen-4-yl)-3-phenylpropanamide] | 38% |
| C[C@H](NS(=O)(=O)c1ccc(N)cc1)C(=O)Nc1c2c(cc3c1CCC3)CCC2 [Compound 7b of Formula (III), (S)-2-((4-aminophenyl)sulfonamido)-N-(1,2,3,5,6,7-hexahydro-s-indacen-4-yl)propanamide] | 17.3% |
| O=C(Nc1c2c(cc3c1CCC3)CCC2)C1CCCCN1S(=O)(=O)c1ccc([N+](=O)[O-])cc1 (centres unmarked) [Compound 3b of Formula (IV), N-(1,2,3,5,6,7-hexahydro-s-indacen-4-yl)-1-((4-nitrophenyl)sulfonyl)piperidine-2-carboxamide] | 52.4% |
| NCCCC[C@H](NS(=O)(=O)c1ccc([N+](=O)[O-])cc1)C(=O)Nc1c2c(cc3c1CCC3)CCC2 [Compound 9 of Formula (III), (S)-6-amino-N-(1,2,3,5,6,7-hexahydro-s-indacen-4-yl)-2-((4-nitrophenyl)sulfonamido)hexanamide] | 47.5% |
| Nc1ccc(S(=O)(=O)N[C@H](Cc2ccccc2)C(=O)Nc2c3c(cc4c2CCC4)CCC3)cc1 [Compound 7h of Formula (III), (R)-2-((4-aminophenyl)sulfonamido)-N-(1,2,3,5,6,7-hexahydro-s-indacen-4-yl)-3-phenylpropanamide] | 46.4% |
| O=C(CCNS(=O)(=O)c1ccc([N+](=O)[O-])cc1)Nc1c2c(cc3c1CCC3)CCC2 [Compound 6k of Formula (III), N-(1,2,3,5,6,7-hexahydro-s-indacen-4-yl)-3-((4-nitrophenyl)sulfonamido)propanamide] | 36.5% |
| O=C(Nc1c2c(cc3c1CCC3)CCC2)C1CCCN1S(=O)(=O)c1ccc([N+](=O)[O-])cc1 (centres unmarked) [Compound 3a of Formula (IV), N-(1,2,3,5,6,7-hexahydro-s-indacen-4-yl)-1-((4-nitrophenyl)sulfonyl)pyrrolidine-2-carboxamide] | 25.7% |
